Test results taken from patent US7897598B2, “Inhibitors of the anandamide transporter” (priority 1998, dated 2011).
Several values for one entry are separate records, joined by “and”; a condition that tells them apart may be missing. Identical values can stand only once. Like-named read-outs stand apart in the source and are kept apart here.

Experiments:
[1] = test system: anandamide transporter
[2] = test system: anandamide transporter; experiment: [3H]anandamide transport assay, inhibition in astrocytoma cells; settings: for IC50: read-out: IC50, [3H]anandamide accumulation
[3] = test system: adenylyl cyclase activity; experiment: cAMP concentrations (adenylyl cyclase activity) in forskolin-stimulated cortical neurons; assay type: cell-based, rat
[4] = test system: male Swiss mice; settings: mouse, in vivo
[5] = target: CB1 receptors (Homo sapiens, UniProt P21554); experiment: Binding to CB1 receptors
CB1 receptors, sequence (P21554 whole entry): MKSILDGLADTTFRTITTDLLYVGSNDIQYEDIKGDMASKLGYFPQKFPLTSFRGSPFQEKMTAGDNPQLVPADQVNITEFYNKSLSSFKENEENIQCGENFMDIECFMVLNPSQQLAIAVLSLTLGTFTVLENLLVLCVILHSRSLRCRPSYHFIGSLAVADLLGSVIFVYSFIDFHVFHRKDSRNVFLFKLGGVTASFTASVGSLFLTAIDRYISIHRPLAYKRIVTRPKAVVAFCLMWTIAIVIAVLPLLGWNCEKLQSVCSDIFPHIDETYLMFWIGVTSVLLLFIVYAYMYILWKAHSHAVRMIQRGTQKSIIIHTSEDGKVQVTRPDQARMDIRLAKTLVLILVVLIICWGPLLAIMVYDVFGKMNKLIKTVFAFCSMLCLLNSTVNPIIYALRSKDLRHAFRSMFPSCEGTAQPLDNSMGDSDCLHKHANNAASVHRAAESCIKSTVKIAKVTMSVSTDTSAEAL

[6] = test system: anandamide transporter; experiment: [3H]anandamide accumulation in cortical astrocytes in culture; assay type: cell-based, rat
[7] = test system: anandamide transporter; experiment: Transport (translocation) of radioactively labeled substrates into astrocytoma cells; assay type: cell-based, human; settings: radioactively labeled compound, FIG. 4 and FIG. 5
[8] = test system: anandamide transporter; experiment: [3H]anandamide accumulation in neurons; assay type: cell-based, rat
[9] = target: T1, fatty acid amide hydrolase (FAAH) (Rattus norvegicus, UniProt P97612); experiment: FAAH activity in brain microsomes; assay type: biochemical
T1 construct: from tissue; host or cells: brain microsomes
T1 sequence (P97612 1-579): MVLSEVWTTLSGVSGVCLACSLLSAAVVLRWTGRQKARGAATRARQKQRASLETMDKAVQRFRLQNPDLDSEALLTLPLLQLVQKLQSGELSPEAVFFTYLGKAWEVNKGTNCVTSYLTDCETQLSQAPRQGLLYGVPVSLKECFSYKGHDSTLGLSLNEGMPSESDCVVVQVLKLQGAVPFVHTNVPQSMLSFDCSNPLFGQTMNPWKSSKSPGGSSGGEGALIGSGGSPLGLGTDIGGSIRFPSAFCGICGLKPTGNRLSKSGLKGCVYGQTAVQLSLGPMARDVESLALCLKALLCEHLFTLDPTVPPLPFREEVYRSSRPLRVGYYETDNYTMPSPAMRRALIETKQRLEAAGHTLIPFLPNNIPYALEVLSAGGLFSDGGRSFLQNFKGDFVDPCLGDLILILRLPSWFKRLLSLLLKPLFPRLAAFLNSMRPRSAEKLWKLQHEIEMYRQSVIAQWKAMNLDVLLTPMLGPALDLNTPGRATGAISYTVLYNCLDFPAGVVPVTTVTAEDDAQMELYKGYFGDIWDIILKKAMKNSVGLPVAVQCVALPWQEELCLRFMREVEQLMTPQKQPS

[10] = target: rat cerebral membranes ([3H]WIN-55212-2 binding) (Rattus norvegicus, UniProt P20272); experiment: Binding of [3H]WIN-55212-2 to rat cerebral membranes
rat cerebral membranes ([3H]WIN-55212-2 binding), sequence (P20272 whole entry): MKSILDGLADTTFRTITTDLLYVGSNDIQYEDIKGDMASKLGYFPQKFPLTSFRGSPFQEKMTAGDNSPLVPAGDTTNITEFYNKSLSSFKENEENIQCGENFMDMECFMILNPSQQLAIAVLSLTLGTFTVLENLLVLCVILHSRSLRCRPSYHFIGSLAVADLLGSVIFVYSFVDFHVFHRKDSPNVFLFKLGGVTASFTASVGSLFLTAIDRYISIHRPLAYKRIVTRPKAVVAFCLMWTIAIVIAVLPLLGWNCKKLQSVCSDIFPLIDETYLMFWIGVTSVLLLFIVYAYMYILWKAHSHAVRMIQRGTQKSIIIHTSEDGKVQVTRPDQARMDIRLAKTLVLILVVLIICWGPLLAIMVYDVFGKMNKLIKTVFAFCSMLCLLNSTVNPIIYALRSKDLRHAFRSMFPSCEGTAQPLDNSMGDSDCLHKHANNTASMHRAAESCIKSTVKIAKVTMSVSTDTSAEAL

Molecule: CCCCC/C=C\C/C=C\C/C=C\CCCCCCC(=O)NCCO
- IC50 [1]: 13 ± 3.6 µM

Molecule: CCCCCCCC/C=C\CCCCCCCCCC(=O)NCCO
- IC50 [1]: 14.1 ± 1.2 µM

Molecule: CCCCCC=CCC=CCC=CCC=CCCCC(=O)NCC
- IC50 [1]: 48.5 ± 7.3 µM

Molecule: CCCCCC=CCC=CCC=CCC=CCCCC(N)=O
- IC50 [1]: 9 ± 2 µM

Molecule: CCCCCC=CCC=CCC=CCC=CCCCC(=O)OC(CO)CO
- IC50 [1]: 18.5 ± 0.7 µM

Molecule: CCCCCC=CCC=CCC=CCC=CCCCC(=O)OCC(O)CO (centres unmarked)
- IC50 [1]: 48.5 ± 8.1 µM

Molecule: CCCCCC=CCC=CCC=CCC=CCCCC(=O)N1CCOCC1
- IC50 [1]: 25 µM

Molecule: CCCCCC=CCC=CCC=CCC=CCCCC(=O)N1CCC(O)CC1
- IC50 [1]: 10 ± 0.2 µM

Molecule: CCCCCC=CCC=CCC=CCC=CCCCC(=O)N1CCCC(O)C1 (centres unmarked)
- IC50 [1]: 15 µM

Molecule: CCCCCC=CCC=CCC=CCC=CCCCC(=O)N1CCC(O)C1 (centres unmarked)
- IC50 [1]: 15.3 ± 3 µM

Molecule: CCCCCC=CCC=CCC=CCC=CCCC(C)(C)C(=O)NCCO
- IC50 [1]: 7.6 ± 1.2 µM

Molecule: CCCCC/C=C\C/C=C\C/C=C\C/C=C\CCCC(=O)Nc1cccc(O)c1 [AM403, N-(3-hydroxyphenyl)-arachidonamide]
- times less effective than N-(4-hydroxyphenyl)-arachidonamide ([2]; human astrocytoma cells, ratio of IC50): 10 times
- IC50 ([2]; human astrocytoma cells): 21.3 ± 3.4 µM
- cAMP, % of forskolin alone [3]: 92.4±2.3%
- enhancement of the anandamide response on cAMP (in words) [3]: less effective

Molecule: CCCCC/C=C\C/C=C\C/C=C\C/C=C\CCCC(=O)Nc1ccc(O)cc1 [AM404, N-(4-hydroxyphenyl)-arachidonamide]
- antinociceptive effect alone (in words) [4]: no antinociceptive effect
- effect on anandamide-induced analgesia (in words) [4]: significantly enhanced and prolonged
- competition with [3H]anandamide for transport / uptake inhibition (in words) [2]: the most potent competitor in our series
- IC50 ([2]; human astrocytoma cells): 2.2 ± 0.2 µM
- Ki [5]: 1.8 µM
- cAMP, % of forskolin alone [3]: 89.8±2.6% and 84.4±4.9%
- decrease of anandamide threshold, factor [3]: 1.100
- effect on cAMP concentrations when applied alone [3]: did not reduce cAMP concentrations
- enhancement of the anandamide response on cAMP (in words) [3]: almost maximal effect
- increase of anandamide potency, factor [3]: 10

Molecule: CCCCC[C@H](O)/C=C/[C@H]1[C@H](O)CC(=O)[C@@H]1C/C=C\CCCC(=O)O [PGE2, prostaglandin E2]
- effect on [3H]anandamide accumulation (in words) [6]: inability

Molecule: Cc1c(C(=O)c2cccc3ccccc23)c2cccc3c2n1[C@H](CN1CCOCC1)CO3 [WIN-55212-2, reference compound]
- effect on [3H]anandamide accumulation (in words) [6]: no effect
- cAMP, % of forskolin alone [3]: 96.7±2.5%

Molecule: CCCCC/C=C\C/C=C\C/C=C\C/C=C\CCCC(=O)NCCO [anandamide, Arachidonyl ethanolamide]
- latency to jump [4]: 30.7 ± 0.8 s
- time after injection at which analgesia disappeared [4]: 60 min
- IC50 [1]: 15.1 ± 3 µM

Molecule: CCCCC/C=C\C/C=C\C/C=C\C/C=C\CCCC(N)=O [arachidonamide]
- transport into cells (substrate translocation, in words) [7]: effectively transported into cells
- competition with [3H]anandamide for transport / uptake inhibition (in words) [2]: compete with anandamide for uptake

Molecule: Cc1c(C2(c3cc(Br)c(O)c(Br)c3C)OS(=O)(=O)c3ccccc32)cc(Br)c(O)c1Br [bromcresol green]
- IC50 [8]: 4 µM
- effect on FAAH activity [9]: no significant effect
- mode of inhibition of [3H]anandamide accumulation [6]: noncompetitively
- IC50 ([6]; astrocytes): 12 µM
- effect on binding of [3H]WIN-55212-2 [10]: no significant effect
- cAMP, % of forskolin alone ([3]; 10 μM inhibitor in the presence of WIN-55212-2 1 nM, n=3): 92.9±2.3%
- enhancement of the anandamide response on cAMP (in words) ([3]; anandamide 0.3 μM, inhibitors 10 μM, SR-141716-A 1 μM): less effective
- cAMP, % of forskolin alone ([3]; inhibitor in the presence of glutamate 3 μM, n=3): 84.4±3%

Molecule: CCCCCCCC/C=C\CCCCCCCC(=O)NCCO [drawing 6]
- IC50 [1]: 10.5 ± 1.2 µM

Molecule: CCCCCC=CCC=CCC=CCC=CCCCC(=O)NC(C)CO (centres unmarked) [drawing 12]
- IC50 [1]: 37.7 ± 0.7 µM

Molecule: CCCCCC=CCC=CCC=CCC=CCCCC(=O)NC(C)CO (centres unmarked) [drawing 13]
- IC50 [1]: 10.4 ± 1.2 µM

Molecule: CCCCCC=CCC=CCC=CCC=CCCC(C)(C)C(=O)NCC(C)O (centres unmarked) [drawing 21]
- IC50 [1]: 33.2 ± 4.2 µM

Molecule: CCCCCC=CCC=CCC=CCC=CCCC(C)(C)C(=O)NCC(C)O (centres unmarked) [drawing 22]
- IC50 [1]: 16.5 ± 1 µM

Molecule: N[C@@H](CCC(=O)O)C(=O)O [glutamate, reference compound]
- cAMP, % of forskolin alone [3]: 91.6±2%

Molecule: CCCCCCCC/C=C\CCCCCCCC(=O)NCCO [oleylethanolamide]
- transport into cells (substrate translocation, in words) [7]: not transported at all

Molecule: CCCCCCCCCCCCCCCC(=O)NCCO [palmitoyl ethanolamide, reference compound]
- transport into cells (substrate translocation, in words) [7]: not transported to any significant extent
- effect on [3H]anandamide accumulation (in words) ([6]; cortical astrocytes, WIN-55212-2 1 μM, SR-141716-A 10 μM): not

Molecule: cis-eicosadienoylethanolamide
- transport into cells (substrate translocation, in words) [7]: transported very slowly

Molecule: cis-eicosaenoylethanoladide
- transport into cells (substrate translocation, in words) [7]: not transported at all

Molecule: cis-eicosatrienoylethanolamide
- transport into cells (substrate translocation, in words) [7]: transported very slowly
